The record followed here is PubChem BioAssay AID1259407 (Chemical Carcinogenesis Research Information System (CCRIS), 2018).

Active and inactive are the calls of the source. How the calls were made is not given here.

In the data set the test system is CCRIS mutagenicity, Ames/micronucleus/aberration tests. Description: CCRIS mutagenicity studies.

Take `Cn1c([N+](=O)[O-])cnc1-c1nnc(N)s1`: the mutagenic call runs as follows: (End Point: IN VITRO CHROMOSOMAL ABERRATIONS, Test System: HUMAN PERIPHERAL LYMPHOCYTES, Species: HUMAN, Strain/Sex: MALE, FEMALE, Metabolic Activation: NONE) “active; positive (structural changes)”; (End Point: IN VITRO CHROMOSOMAL ABERRATIONS, Test System: HUMAN PERIPHERAL LYMPHOCYTES, Species: HUMAN, Strain/Sex: MALE, FEMALE, Metabolic Activation: RAT, LIVER, S-9, AROCLOR 1254 (5%)) “active; positive (structural changes)”; (End Point: IN VITRO CHROMOSOMAL ABERRATIONS, Test System: HUMAN PERIPHERAL LYMPHOCYTES, Species: HUMAN, Strain/Sex: MALE, FEMALE, Metabolic Activation: RAT, LIVER, S-9, AROCLOR 1254 (10%)) “active; positive (structural changes)”; (End Point: IN VITRO MICRONUCLEUS, Test System: L5178Y MOUSE LYMPHOMA (TK+/-), Metabolic Activation: NONE) “active; positive (increase in micronucleated cells)”; (End Point: IN VITRO MICRONUCLEUS, Test System: L5178Y MOUSE LYMPHOMA (TK+/-), Metabolic Activation: RAT, LIVER, S-9, AROCLOR 1254) “active; positive (increase in micronucleated cells)”; (End Point: IN VIVO MICRONUCLEUS, Test System: BONE MARROW POLYCHROMATIC ERYTHROCYTES, Species: RAT, Strain/Sex: SPRAGUE-DAWLEY/MALE, FEMALE) “active; positive”. Further, the mutagenic call is “active; positive” (End Point: IN VIVO MICRONUCLEUS, Test System: BONE MARROW POLYCHROMATIC ERYTHROCYTES, Species: RAT, Strain/Sex: SPRAGUE-DAWLEY/MALE, FEMALE, Route: ORAL); “active; positive” (Test System: AMES SALMONELLA TYPHIMURIUM, Strain/Indicator: TA98 (DNP-6), Metabolic Activation: NONE, Method: DESICCATOR); “active; positive” (Test System: AMES SALMONELLA TYPHIMURIUM, Strain/Indicator: TA98 (DNP-6), Metabolic Activation: NONE, Method: STANDARD PLATE); “active; positive” (Test System: AMES SALMONELLA TYPHIMURIUM, Strain/Indicator: TA98 (DNP-6), Metabolic Activation: RAT LIVER S-9, AROCLOR 1254, 10% (W/V), Method: DESICCATOR); “active; positive” (Test System: AMES SALMONELLA TYPHIMURIUM, Strain/Indicator: TA98 (DNP-6), Metabolic Activation: RAT LIVER S-9, AROCLOR 1254, 10% (W/V), Method: STANDARD PLATE); “inactive; negative” (Test System: AMES SALMONELLA TYPHIMURIUM, Strain/Indicator: TA98 (NR), Metabolic Activation: NONE, Method: DESICCATOR). The mutagenic call was “inactive; negative” (Test System: AMES SALMONELLA TYPHIMURIUM, Strain/Indicator: TA98 (NR), Metabolic Activation: NONE, Method: STANDARD PLATE); “inactive; negative” (Test System: AMES SALMONELLA TYPHIMURIUM, Strain/Indicator: TA98 (NR), Metabolic Activation: RAT LIVER S-9, AROCLOR 1254, 10% (W/V), Method: DESICCATOR); “inactive; negative” (Test System: AMES SALMONELLA TYPHIMURIUM, Strain/Indicator: TA98 (NR), Metabolic Activation: RAT LIVER S-9, AROCLOR 1254, 10% (W/V), Method: STANDARD PLATE); “active; positive” (Test System: AMES SALMONELLA TYPHIMURIUM, Strain/Indicator: TA98, Metabolic Activation: NONE, Method: DESICCATOR); “active; positive” (Test System: AMES SALMONELLA TYPHIMURIUM, Strain/Indicator: TA98, Metabolic Activation: NONE, Method: STANDARD PLATE); “active; positive” (Test System: AMES SALMONELLA TYPHIMURIUM, Strain/Indicator: TA98, Metabolic Activation: RAT LIVER S-9, AROCLOR 1254, 10% (W/V), Method: DESICCATOR). In addition, the mutagenic call was “active; positive” (Test System: AMES SALMONELLA TYPHIMURIUM, Strain/Indicator: TA98, Metabolic Activation: RAT LIVER S-9, AROCLOR 1254, 10% (W/V), Method: STANDARD PLATE); “active; positive” (Test System: AMES SALMONELLA TYPHIMURIUM, Strain/Indicator: TA98, Metabolic Activation: RAT, LIVER, S-9, AROCLOR 1254, Method: STANDARD PLATE); “active; positive” (Test System: AMES SALMONELLA TYPHIMURIUM, Strain/Indicator: TA102, Metabolic Activation: NONE, Method: STANDARD PLATE); “active; positive” (Test System: AMES SALMONELLA TYPHIMURIUM, Strain/Indicator: TA102, Metabolic Activation: RAT, LIVER, S-9, AROCLOR 1254, Method: STANDARD PLATE).

`O=P(O)(O)CCCl`: the mutagenic call by setting is: (End Point: In vitro chromosomal aberrations, Test System: Chinese hamster ovary (CHO-WBL) cells, Metabolic Activation: None) “inactive; negative”; (End Point: In vitro chromosomal aberrations, Test System: Chinese hamster ovary (CHO-WBL) cells, Metabolic Activation: Rat, Liver, S-9, Aroclor 1254) “inactive; negative”; (Test System: Chinese hamster ovary cells, Strain/Indicator: CHO-K1-BH4 (HGPRT)/6-Thioguanine, Metabolic Activation: None, Method: Suspension/Plate?) “inactive; negative (an increase in mutation frequency at 2.5 mg/ml not confirmed in repeat”; (Test System: Chinese hamster ovary cells, Strain/Indicator: CHO-K1-BH4 (HGPRT)/6-Thioguanine, Metabolic Activation: Rat, Liver, S-9, Aroclor 1254, Method: Suspension/Plate?) “inactive; negative (an increase in mutation frequency at 2.5 mg/ml not confirmed in repeat”.

`Clc1ccc(Cl)c(Cl)c1Cl`: the mutagenic call is, setting by setting: (End Point: IN VITRO CHROMOSOMAL ABERRATIONS, Test System: CHO-LB CELLS, Metabolic Activation: NONE) “inactive; negative”; (End Point: IN VITRO CHROMOSOMAL ABERRATIONS, Test System: CHO-LB CELLS, Metabolic Activation: RAT, LIVER, S-9, AROCLOR 1254) “inactive; negative”; (Test System: AMES SALMONELLA TYPHIMURIUM, Strain/Indicator: TA98, Metabolic Activation: HAMSTER, LIVER, S-9, AROCLOR 1254, Method: PREINCUBATION) “inactive; negative”; (Test System: AMES SALMONELLA TYPHIMURIUM, Strain/Indicator: TA98, Metabolic Activation: NONE, Method: PREINCUBATION) “inactive; negative”; (Test System: AMES SALMONELLA TYPHIMURIUM, Strain/Indicator: TA98, Metabolic Activation: RAT, LIVER, S-9, AROCLOR 1254, Method: PREINCUBATION) “inactive; negative”; (Test System: AMES SALMONELLA TYPHIMURIUM, Strain/Indicator: TA100, Metabolic Activation: HAMSTER, LIVER, S-9, AROCLOR 1254, Method: PREINCUBATION) “inactive; negative”. The mutagenic call by setting is: (Test System: AMES SALMONELLA TYPHIMURIUM, Strain/Indicator: TA100, Metabolic Activation: NONE, Method: PREINCUBATION) “inactive; negative”; (Test System: AMES SALMONELLA TYPHIMURIUM, Strain/Indicator: TA100, Metabolic Activation: RAT, LIVER, S-9, AROCLOR 1254, Method: PREINCUBATION) “inactive; negative”; (Test System: AMES SALMONELLA TYPHIMURIUM, Strain/Indicator: TA1535, Metabolic Activation: HAMSTER, LIVER, S-9, AROCLOR 1254, Method: PREINCUBATION) “inactive; negative”; (Test System: AMES SALMONELLA TYPHIMURIUM, Strain/Indicator: TA1535, Metabolic Activation: NONE, Method: PREINCUBATION) “inactive; negative”; (Test System: AMES SALMONELLA TYPHIMURIUM, Strain/Indicator: TA1535, Metabolic Activation: RAT, LIVER, S-9, AROCLOR 1254, Method: PREINCUBATION) “inactive; negative”; (Test System: AMES SALMONELLA TYPHIMURIUM, Strain/Indicator: TA1537, Metabolic Activation: HAMSTER, LIVER, S-9, AROCLOR 1254, Method: PREINCUBATION) “inactive; negative”. The mutagenic call is, setting by setting: (Test System: AMES SALMONELLA TYPHIMURIUM, Strain/Indicator: TA1537, Metabolic Activation: NONE, Method: PREINCUBATION) “inactive; negative”; (Test System: AMES SALMONELLA TYPHIMURIUM, Strain/Indicator: TA1537, Metabolic Activation: RAT, LIVER, S-9, AROCLOR 1254, Method: PREINCUBATION) “inactive; negative”.
